The source of these data is patent publication US9376425B2, “Heterocyclic compounds as MDM2 inhibitors for the treatment of cancer” (AMGEN INC., priority 2011, dated 2016).

In the assay the target is T1, human MDM2 (GST-hMDM2 1-188), interaction with biotinylated-p53 (1-83) (Homo sapiens, UniProt Q00987).
T1 construct: Amino acid residues 1-188 of human MDM2 were expressed; made in house; host or cells: Escherichia coli
T1 sequence (Q00987 1-188): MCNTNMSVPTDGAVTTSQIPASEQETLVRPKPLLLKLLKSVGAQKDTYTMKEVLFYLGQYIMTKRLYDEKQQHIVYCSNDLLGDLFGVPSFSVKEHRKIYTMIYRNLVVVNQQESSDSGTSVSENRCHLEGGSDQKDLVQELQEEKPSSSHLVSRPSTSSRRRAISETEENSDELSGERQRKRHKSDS
Briefly: improved HTRF assay (HTRF2 assay), inhibition of HDM2-p53 interaction. In kind it is binding. The settings on record: 0.2 nM GST-hMDM2, 0.5 nM biotinylated-p53, 100 mM KF. Put shortly: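 Time-resolved fluorescence (HTRF) read after >4 h equilibration with SA-XLent/anti-GST cryptate/KF detection reagents. Reaction: compound plus GST-hMDM2 for 20 min at room temperature, then E. coli-expressed biotinylated p53 residues 1-83 for 60 min, 2% DMSO final. Inhibition expressed versus nutlin-3.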
(In TR-FRET formats the signal depends on donor and acceptor labels being close together.)
The term IC50 denotes the point on the concentration scale where inhibition reaches its midpoint. For the compound `CC(C)(O)CS(=O)(=O)C[C@H](C1CC1)N1C(=O)[C@@H](CC(=O)O)O[C@H](c2cccc(Cl)c2)[C@H]1c1ccc(Cl)cc1` (single isomer, unassigned) [Example 289, 2-((2R,5R,6R)-6-(3-Chlorophenyl)-5-(4-chlorophenyl)-4-((S)-1-cyclopropyl-2-((2-hydroxy-2-methylpropyl)sulfonyl)ethyl)-3-oxomorpholin-2-yl)acetic acid or 2-((2S,5R,6R)-6-(3-chlorophenyl)-5-(4-chlorophenyl)-4-((S)-1-cyclopropyl-2-((2-hydroxy-2-methylpropyl)sulfonyl)ethyl)-3-oxomorpholin-2-yl)acetic acid], half-maximal inhibition (IC50) was put at 2 nM. In turn, `CC(C)(C#N)S(=O)(=O)C[C@H](C1CC1)N1C(=O)[C@@H](CC(=O)O)O[C@H](c2cccc(Cl)c2)[C@H]1c1ccc(Cl)cc1` (single isomer, unassigned) [Example 290, 2-((2R,5R,6R)-6-(3-Chlorophenyl)-5-(4-chlorophenyl)-4-((S)-2-((2-cyanopropan-2-yl)sulfonyl)-1-cyclopropylethyl)-3-oxomorpholin-2-yl)acetic acid or 2-((2S,5R,6R)-6-(3-chlorophenyl)-5-(4-chlorophenyl)-4-((S)-2-((2-cyanopropan-2-yl)sulfonyl)-1-cyclopropylethyl)-3-oxomorpholin-2-yl)acetic acid] registered a 50% inhibitory concentration (IC50) of less than 1 nM. The compound `CC(C)(C#N)S(=O)(=O)C[C@H](C1CC1)N1C(=O)[C@@H](CC(=O)O)O[C@H](c2cccc(Cl)c2)[C@H]1c1ccc(Cl)cc1` (single isomer, unassigned) [Example 291, 2-((2R,5R,6R)-6-(3-Chlorophenyl)-5-(4-chlorophenyl)-4-((S)-2-((2-cyanopropan-2-yl)sulfonyl)-1-cyclopropylethyl)-3-oxomorpholin-2-yl)acetic acid or 2-((2S,5R,6R)-6-(3-chlorophenyl)-5-(4-chlorophenyl)-4-((S)-2-((2-cyanopropan-2-yl)sulfonyl)-1-cyclopropylethyl)-3-oxomorpholin-2-yl)acetic acid] displayed an IC50 of less than 1 nM. Under `CC(C)(C)NS(=O)(=O)C[C@H](C1CC1)N1C(=O)[C@@H](CC(=O)O)O[C@H](c2cccc(Cl)c2)[C@H]1c1ccc(Cl)cc1` (single isomer, unassigned) [Example 292, 2-((2R,5R,6R)-4-((S)-2-(N-(tert-Butyl)sulfamoyl)-1-cyclopropylethyl)-6-(3-chlorophenyl)-5-(4-chlorophenyl)-3-oxomorpholin-2-yl)acetic acid or 2-((2S,5R,6R)-4-((S)-2-(N-(tert-butyl)sulfamoyl)-1-cyclopropylethyl)-6-(3-chlorophenyl)-5-(4-chlorophenyl)-3-oxomorpholin-2-yl)acetic acid] stands less than 1 nM; under `CC(C)(C)NS(=O)(=O)C[C@H](C1CC1)N1C(=O)[C@@H](CC(=O)O)O[C@H](c2cccc(Cl)c2)[C@H]1c1ccc(Cl)cc1` (single isomer, unassigned) [Example 293, 2-((2R,5R,6R)-4-((S)-2-(N-(tert-Butyl)sulfamoyl)-1-cyclopropylethyl)-6-(3-chlorophenyl)-5-(4-chlorophenyl)-3-oxomorpholin-2-yl)acetic acid or 2-((2S,5R,6R)-4-((S)-2-(N-(tert-butyl)sulfamoyl)-1-cyclopropylethyl)-6-(3-chlorophenyl)-5-(4-chlorophenyl)-3-oxomorpholin-2-yl)acetic acid], 1 nM; under `O=C(O)C[C@H]1O[C@H](c2cccc(Cl)c2)[C@@H](c2ccc(Cl)cc2)N([C@H](CS(=O)(=O)Nc2ccccc2F)C2CC2)C1=O` (single isomer, unassigned) [Example 294, 2-((2R,5R,6R)-6-(3-Chlorophenyl)-5-(4-chlorophenyl)-4-((S)-1-cyclopropyl-2-(N-(2-fluorophenyl)sulfamoyl)ethyl)-3-oxomorpholin-2-yl)acetic acid or 2-((2S,5R,6R)-6-(3-chlorophenyl)-5-(4-chlorophenyl)-4-((S)-1-cyclopropyl-2-(N-(2-fluorophenyl)sulfamoyl)ethyl)-3-oxomorpholin-2-yl)acetic acid], less than 1 nM. On to `O=C(O)C[C@H]1O[C@H](c2cccc(Cl)c2)[C@@H](c2ccc(Cl)cc2)N([C@H](CS(=O)(=O)Nc2ccccc2F)C2CC2)C1=O` (single isomer, unassigned) [Example 295, 2-((2R,5R,6R)-6-(3-Chlorophenyl)-5-(4-chlorophenyl)-4-((S)-1-cyclopropyl-2-(N-(2-fluorophenyl)sulfamoyl)ethyl)-3-oxomorpholin-2-yl)acetic acid or 2-((2S,5R,6R)-6-(3-chlorophenyl)-5-(4-chlorophenyl)-4-((S)-1-cyclopropyl-2-(N-(2-fluorophenyl)sulfamoyl)ethyl)-3-oxomorpholin-2-yl)acetic acid], for which 2 nM corresponded to half-maximal inhibition (IC50).

`C[C@H]1CCCN1S(=O)(=O)C[C@H](C1CC1)N1C(=O)[C@@H](CC(=O)O)O[C@H](c2cccc(Cl)c2)[C@H]1c1ccc(Cl)cc1` (single isomer, unassigned) [Example 296, 2-((2R,5R,6R)-6-(3-Chlorophenyl)-5-(4-chlorophenyl)-4-((S)-1-cyclopropyl-2-(((S)-2-methylpyrrolidin-1-yl)sulfonyl)ethyl)-3-oxomorpholin-2-yl)acetic acid or 2-((2S,5R,6R)-6-(3-chlorophenyl)-5-(4-chlorophenyl)-4-((S)-1-cyclopropyl-2-(((S)-2-methylpyrrolidin-1-yl)sulfonyl)ethyl)-3-oxomorpholin-2-yl)acetic acid] registered a half-maximal inhibitory concentration (IC50) of less than 1 nM. `C[C@H]1CCCN1S(=O)(=O)C[C@H](C1CC1)N1C(=O)[C@@H](CC(=O)O)O[C@H](c2cccc(Cl)c2)[C@H]1c1ccc(Cl)cc1` (single isomer, unassigned) [Example 297, 2-((2R,5R,6R)-6-(3-Chlorophenyl)-5-(4-chlorophenyl)-4-((S)-1-cyclopropyl-2-(((S)-2-methylpyrrolidin-1-yl)sulfonyl)ethyl)-3-oxomorpholin-2-yl)acetic acid or 2-((2S,5R,6R)-6-(3-chlorophenyl)-5-(4-chlorophenyl)-4-((S)-1-cyclopropyl-2-(((S)-2-methylpyrrolidin-1-yl)sulfonyl)ethyl)-3-oxomorpholin-2-yl)acetic acid] had a 50% inhibitory concentration (IC50) of less than 1 nM. `O=C(O)C[C@H]1O[C@H](c2cccc(Cl)c2)[C@@H](c2ccc(Cl)cc2)N([C@H](CS(=O)(=O)N2CCc3cc(F)ccc32)C2CC2)C1=O` (single isomer, unassigned) [Example 298, 2-((2R,5R,6R)-6-(3-Chlorophenyl)-5-(4-chlorophenyl)-4-((S)-1-cyclopropyl-2-((5-fluoroindolin-1-yl)sulfonyl)ethyl)-3-oxomorpholin-2-yl)acetic acid or 2-((2S,5R,6R)-6-(3-chlorophenyl)-5-(4-chlorophenyl)-4-((S)-1-cyclopropyl-2-((5-fluoroindolin-1-yl)sulfonyl)ethyl)-3-oxomorpholin-2-yl)acetic acid] yielded an IC50 of 26 nM. For `O=C(O)C[C@H]1O[C@H](c2cccc(Cl)c2)[C@@H](c2ccc(Cl)cc2)N([C@H](CS(=O)(=O)N2CCc3cc(F)ccc32)C2CC2)C1=O` (single isomer, unassigned) [Example 299, 2-((2R,5R,6R)-6-(3-Chlorophenyl)-5-(4-chlorophenyl)-4-((S)-1-cyclopropyl-2-((5-fluoroindolin-1-yl)sulfonyl)ethyl)-3-oxomorpholin-2-yl)acetic acid or 2-((2S,5R,6R)-6-(3-chlorophenyl)-5-(4-chlorophenyl)-4-((S)-1-cyclopropyl-2-((5-fluoroindolin-1-yl)sulfonyl)ethyl)-3-oxomorpholin-2-yl)acetic acid], it took 11 nM to reach half-maximal inhibition (IC50).

For `CN(C(C)(C)C)S(=O)(=O)C[C@H](C1CC1)N1C(=O)[C@@H](CC(=O)O)O[C@H](c2cccc(Cl)c2)[C@H]1c1ccc(Cl)cc1` (single isomer, unassigned) [Example 300, 2-((2R,5R,6R)-4-((S)-2-(N-(tert-Butyl)-N-methylsulfamoyl)-1-cyclopropylethyl)-6-(3-chlorophenyl)-5-(4-chlorophenyl)-3-oxomorpholin-2-yl)acetic acid or 2-((2S,5R,6R)-4-((S)-2-(N-(tert-butyl)-N-methylsulfamoyl)-1-cyclopropylethyl)-6-(3-chlorophenyl)-5-(4-chlorophenyl)-3-oxomorpholin-2-yl)acetic acid], the IC50 is less than 1 nM.

`CN(C(C)(C)C)S(=O)(=O)C[C@H](C1CC1)N1C(=O)[C@@H](CC(=O)O)O[C@H](c2cccc(Cl)c2)[C@H]1c1ccc(Cl)cc1` (single isomer, unassigned) [Example 301, 2-((2R,5R,6R)-4-((S)-2-(N-(tert-Butyl)-N-methylsulfamoyl)-1-cyclopropylethyl)-6-(3-chlorophenyl)-5-(4-chlorophenyl)-3-oxomorpholin-2-yl)acetic acid or 2-((2S,5R,6R)-4-((S)-2-(N-(tert-butyl)-N-methylsulfamoyl)-1-cyclopropylethyl)-6-(3-chlorophenyl)-5-(4-chlorophenyl)-3-oxomorpholin-2-yl)acetic acid] had a concentration for half-maximal inhibition (IC50) of less than 1 nM. As to `O=C(O)C[C@H]1O[C@H](c2cccc(Cl)c2)[C@@H](c2ccc(Cl)cc2)N([C@H](CS(=O)(=O)N2CCOCC2)C2CC2)C1=O` (single isomer, unassigned) [Example 302, 2-((2R,5R,6R)-6-(3-Chlorophenyl)-5-(4-chlorophenyl)-4-((S)-1-cyclopropyl-2-(morpholinosulfonyl)ethyl)-3-oxomorpholin-2-yl)acetic acid or 2-((2S,5R,6R)-6-(3-chlorophenyl)-5-(4-chlorophenyl)-4-((S)-1-cyclopropyl-2-(morpholinosulfonyl)ethyl)-3-oxomorpholin-2-yl)acetic acid], the IC50 was less than 1 nM.
